Results from patent US20240139190A1, “NOVEL ANTIPARASITIC COMPOUNDS AND METHODS” (The Board of Regents of The University of Texas System, priority 2019, published 2024).
“Also recorded” adds a separate entry of the source. Like-named read-outs stand apart in the source and are kept apart here.

Key:
[1] = biological target: purified L. tarentolae tubulin (Leishmania tarentolae, UniProt A0A640KCM0+A0A640KQN0); experiment: Chemical cross-linking competition with SW223022 probe; assay type: binding; details: 100-fold excess of competitor
[2] = system: L. amazonensis axenic amastigotes; experiment: alamarBlue viability / concentration-response assay, axenic amastigotes; assay type: cell-based, Leishmania amazonensis
Method: (§1) Leishmania amazonensis axenic amastigotes (100 μL, 2×10^6 cells/mL) were added to 96-multiwell plates containing 100 μL of amastigote culture medium with an appropriate compound dilution series. 0.1% DMSO (no drug) served as a positive control (100%), and 5 μM amphotericin B served as a negative growth control (0%). Only internal wells were used to minimize edge effects from evaporation. Axenic amastigotes were incubated at 32° C. with a compound/drug for 72 h prior to measurement. Similarly, the cytotoxicity of each compound was determined against RAW 264.7 cells and HepG2 cell lines, following 72 h incubation at 37° C. (promastigotes at 26° C.).
(§2) 10% alamarBlue® (Thermo Fisher Scientific) was used to measure the growth of both parasite and mammalian cells. Conversion from a blue oxidized state to a pink reduced state was assessed visually at 6 hr. The fluorescence signal was measured with a BioTek Synergy H1 plate reader (530 nm excitation, 570 nm emission). For bioluminescence assays using L. amazonensisluc, relative luminescence units (RLU) were measured using Britelite Plus (PerkinElmer, USA). Luminescence produced by this luciferase reaction is proportional to the amount of luciferase-expressing, viable L. amazonensisluc. Following five-minute incubation at room temperature, the luminescence was measured with a BioTek Synergy H1 plate reader.
All experiments were conducted as three technical triplicates on the same plate, with at least three independent biological repeats of each plate performed. For all assays, percent growth was expressed as a proportion of the untreated (positive) control (i.e. 100%) and plotted against drug/compound concentration. The concentration was then log10 transformed and EC50 values were determined using nonlinear regression (sigmoidal dose-response/variable slope equation) in GraphPad Prism v5.0 (GraphPad Software, Inc., San Diego, CA).
To identify antileishmanial compounds, a microplate-based alamarBlue® assay was used to quickly triage the 400 drug-like compounds available in the MMV Pathogen Box collection. […] A three-step process was used to screen the Pathogen Box: 1) identify hits against axenic amastigotes, 2) confirm the inhibitory concentrations of these hits against axenic amastigotes, 3) evaluate hits for potency against intracellular parasites using fluorescence and bioluminescence-based intracellular assays. The MMV Pathogen Box resource was tested at two concentrations (5 μM and 1 μM, 72 h endpoint) on axenic amastigotes.
Hits were defined as compounds that, at a concentration of 1 μM, decreased the relative fluorescence intensity signal to ≤70% of that produced by parasites incubated in vehicle (0.06% DMSO) only (FIG. 9).

Cytotoxicity, alamarBlue = assay type: cell-based; details: mouse, RAW 264.7 macrophage cells, read-out: CC50^72 h cytotoxicity (macrophage / mammalian cells)
Method: as §1
as §2, with “reader. […]” for “reader.”

[3] = system: intracellular L. amazonensis amastigotes; experiment: Intramacrophage bioluminescence assay with luciferase-expressing L. amazonensis; assay type: cell-based, Leishmania amazonensis
Method: Intracellular EC50s were estimated with L. amazonensisluc parasites. Briefly, RAW 264.7 cells or BM primary Mϕs were starved overnight, then infected with metacyclic promastigotes at a Multiplicity of Infection (MOI) of 15 and incubated for another 24 h at 37° C. The plates containing infected RAW 264.7 cells/BM primary M4s were washed five times with serum-free DMEM. Serially diluted compounds were added, and plates were incubated at 37° C. for 72 hrs. Bioluminescence signal was measured as described above.
RAW 264.7 cells were used to perform a bioluminescence assay with transgenic luciferase-expressing L. amazonensis (FIG. 1C).

[4] = system: blood-stage P. falciparum (3D7 strain); experiment: Malaria SYBR green I fluorescence (MSF) assay; assay type: cell-based, Plasmodium falciparum; details: 3D7 strain
Method: For other parasites, L. donovani, strain MHOM/SD/62/1S-C12D, was grown as previously described. Plasmodium falciparum parasites of the 3D7 strain were cultured in RPMI 1640 medium supplemented with 37.5 mM HEPES, 10 mM D-glucose, 2 mM L-glutamine, 100 μM hypoxanthine, 25 μg/mL gentamicin, 4% (v/v) human serum and 0.25% (v/v) Albumax II, at a 2% haematocrit in an atmosphere of 1% 02, 3% CO2 and 96% N2. Staging and parasitemia of the in vitro culture were assessed by light microscopy of Giemsa-stained thin blood smears.
Compounds were tested against the blood-stage Trypanosoma brucei (48 hr endpoint) and intra-erythrocytic asexual stages Plasmodium falciparum (3D7) using CellTiter-Glo® luminescent and Malaria SYBR green I fluorescence (MSF) assays, respectively. Similar methodology will be used for future experiments.
MMV676477 was tested against several other parasites: the axenic amastigotes of Leishmania donovani and Leishmania tarentolae, blood-stage Plasmodium falciparum, and Trypanosoma brucei. The compound's activity was measured using alamarBlue®, Malaria SYBR green I fluorescence (MSF) and CellTiter-Glo® luminescent assays. […] In addition, MMV676477 has also been recently reported as having potent activity against Neospora caninum, Cryptosporidium parvum, Toxoplasma gondii, and Entamoeba histolytica.

[5] = system: L. amazonensis promastigotes and amastigotes; experiment: Microscopic analysis of cell division; assay type: cell-based, Leishmania amazonensis; details: 48 h at EC50^72 h
Method: (§3) Promastigotes or amastigotes were treated with the indicated compound concentrations and allowed to adhere to poly-L-lysine coated plates. All cells were fixed with 4% paraformaldehyde and permeabilized/blocked with 0.01% Triton X-100 and 2% BSA in PBS. Promastigotes and amastigotes were incubated with mouse anti-gp46 or anti-p8, respectively at 1:50 or 1:1000 and rat anti-alpha-tubulin antibody at 1:1000. Samples were then probed with A568 anti-mouse and […] secondary antibodies (Molecular Probes). DNA was labeled with Hoescht. Samples were visualized on a Zeiss LSM 880 Inverted confocal Airyscan microscope at 63×; full Z-thicknesses through parasites were obtained. […] For microscopic analysis of mitotic arrest, at least 200 parasites were analyzed per condition per experiment after 48 hrs incubation at compounds' EC50, and the average plus standard error for three experiments was calculated. Representative images were selected from the maximal intensity projections and linearly processed in Adobe Photoshop CS6.
The molecular target of MMV676477 was investigated.

[6] = system: L. amazonensis promastigotes and amastigotes; experiment: Tubulin intensity by confocal immunofluorescence microscopy; assay type: cell-based, Leishmania amazonensis; details: 24 h at EC50^72 h
Method: as §3
One reason why MMV676477 might affect parasite cell division is that, like paclitaxel, it might affect microtubule polymerization, either directly or indirectly. The degree to which MMV676477 affected microtubules polymerization in cells was examined. […] Centrifugation of these extracts allowed separation of insoluble polymeric (pellet) and soluble dimeric (supernatant) tubulin. […] The intensity of α-tubulin staining was examined by normalizing it to the intensity of a membrane protein (gp46 for promastigotes in FIG. 4D; p8 for amastigotes in FIG. 4E).

[7] = system: intracellular L. amazonensis amastigotes; experiment: Intracellular washout assay (LD50); assay type: cell-based, Leishmania amazonensis
Method: Intracellular LD50s were measured. Briefly, RAW 264.7 cells were seeded to 96-multiwell plates at a density of 2×10^5 cells/mL (200 μL) and starved overnight at 37° C. The cells were infected with metacyclic promastigotes at a Multiplicity of Infection (MOI) of 15 and incubated for another 24 h at 37° C. The plates containing infected RAW 264.7 cells/BM primary M #s were washed five times with serum-free DMEM. Serially diluted compounds were added, and plates were incubated at 37° C. for 72 hrs. Wells were washed five times with DMEM, and the RAW 264.7 cells were lysed with 100 μL of 2 mg/mL saponin in DMEM for 5 min at room temperature, and further lysis was stopped with 100% FBS. After centrifugation, 200 μL acidic promastigotes media was replaced, plates were incubated at 26° C. for 96 h. Fluorescence intensity (alamarBlue®) was measured as described above.
All routine in vitro quantification of antileishmanial drug potency is quantification of “cytostatic” potency. […] Therefore, the cytocidal action of MMV676477 was quantified by obtaining an LD50 at 72 h (a Lethal Dose that kills 50% of the bulk population of the parasites relative to untreated control) and compared it to the known cytocidal drug amphotericin. An intracellular washout assay was employed. […] The ratio of LD50:EC50 was calculated for MMV676477 and amphotericin. Lower ratios indicate that the LD50 is similar to the EC50 value, meaning that the estimated EC50 values represent killing of the parasites rather than simple growth inhibition.

[8] = Leishmania amazonensis, 72 h, axenic amastigotes; read-out: EC50^72 h against L. amazonensis axenic amastigotes
[9] = Pathogen Box screen, 1 μM, 72 h

With CSc1ccccc1C(=O)Oc1cc(C)nc(-n2nc(C)cc2N)n1 [SW10] the “competition with SW223022 probe (fluorescent tubulin band)” value (“competition with SW223022 probe” below) [1] was “No apparent competition”.
In the case of C#CCOc1ccc(C(=O)c2ccc(C(=O)Nc3cc(C)nn3-c3nc(C)c(CC)c(=O)[nH]3)cc2)cc1 [SW223022, N-(1-(5-Ethyl-4-methyl-6-oxo-1,6-dihydropyrimidin-2-yl)-3-methyl-1H-pyrazol-5-yl)-4-(4-(prop-2-yn-1-yloxy)benzoyl)benzamide], the EC50 ([2]; 72 h, axenic amastigotes; read-out: EC50^72 h against L. amazonensis axenic amastigotes) is reported as 0.156 µM and the EC50 [2, 8] is reported as 0.16 µM.
For CCc1c(C)nc(-n2nc(C)cc2NC(C)=O)[nH]c1=O [SW223023, N-(1-(5-Ethyl-4-methyl-6-oxo-1,6-dihydropyrimidin-2-yl)-3-methyl-1H-pyrazol-5-yl) acetamide], the “competition with SW223022 probe” value [1] was “No apparent competition”.
For CCc1c(C)nc(-n2nc(C)cc2NC(=O)c2ccc(F)c(Cl)c2)[nH]c1=O [SW223041, 3-Chloro-N-(1-(5-ethyl-4-methyl-6-oxo-1,6-dihydropyrimidin-2-yl)-3-methyl-1H-pyrazol-5-yl)-4-fluorobenzamide], the EC50 [2, 8] was 0.02 µM, the “improvement of potency against L. amazonensis compared to MMV676477” value ([2]; fold vs MMV676477) was “four to five-fold improved potency; also recorded: about four-fold improved activity” and the CC50 at 72 h (Cytotoxicity, alamarBlue) was 2.4 µM. For the same compound, the “potency against L. amazonensis intracellular amastigotes relative to MMV676477” value [3] was 3-4 fold, the “competition with SW223022 probe” value [1] was “almost completely absent” and the “potency against blood-stage P. falciparum relative to MMV676477” value [4] was 3-4 fold.
In the case of CCc1c(C)nc(-n2nc(C)cc2N)[nH]c1=O [SW223075, 2-(5-amino-3-methyl-1H-pyrazol-1-yl)-5-ethyl-6-methylpyrimidin-4(3H)-one], the EC50 [2, 8] is reported as 0.29 µM, the “percentage of L. amazonensis undergoing cell division” value [5] is reported as “no effect on cell division” and the “tubulin intensity over control (DMSO-treated)” value [6] is reported as “did not increase tubulin intensity”.
For CCc1c(C)nc(-n2nc(C)cc2NC(=O)Nc2ccc(OC)cc2)[nH]c1=O [SW223102, 1-(1-(5-Ethyl-4-methyl-6-oxo-1,6-dihydropyrimidin-2-yl)-3-methyl-1H-pyrazol-5-yl)-3-(4-methoxyphenyl)urea], the EC50 [2, 8] was 2.4 µM and the “competition with SW223022 probe” value [1] was “less-pronounced dimming”.
For C[C@@H]1[C@H](O)[C@@H](C)/C=C/C=C/C=C/C=C/C=C/C=C/C=C/[C@H](O[C@@H]2O[C@H](C)[C@@H](O)[C@H](N)[C@@H]2O)C[C@@H]2O[C@](O)(C[C@@H](O)C[C@@H](O)[C@H](O)CC[C@@H](O)C[C@@H](O)CC(=O)O[C@H]1C)C[C@H](O)[C@H]2C(=O)O [amphotericin B], the EC50 ([2]; Leishmania amazonensis; 72 h, axenic amastigotes; read-out: EC50^72 h against L. amazonensis axenic amastigotes) was 0.053 µM, the EC50 ([3]; Leishmania amazonensis, RAW264.7, 72 h, read-out: EC50^72 h against intracellular L. amazonensis amastigotes) was 0.077 µM and the LD50/EC50 ratio ([7]; intracellular amastigotes) was 1. The “LD50 72 h” value ([7]; intracellular washout, 72 h) was 82 nM.
With CC(=O)OC[C@H]1O[C@@H]([S-])[C@H](OC(C)=O)[C@@H](OC(C)=O)[C@@H]1OC(C)=O.CCP(CC)CC.[Au+] [auranofin] the “relative fluorescence intensity signal vs vehicle (hit definition)” value (“relative fluorescence intensity signal” for short) [2, 9] was “hits”.
For CC(C)(C)[C@H]1CC[C@H](CC2=C(O)C(=O)c3ccccc3C2=O)CC1 [buparvaquone], the “relative fluorescence intensity signal” value [2, 9] was “hits”.
With C[C@]1(COc2ccc(N3CCC(Oc4ccc(OC(F)(F)F)cc4)CC3)cc2)Cn2cc([N+](=O)[O-])nc2O1 [delamanid] the “relative fluorescence intensity signal” value [2, 9] was “hits”.
For CCCCCCCCCCCCCCCCOP(=O)([O-])OCC[N+](C)(C)C [miltefosine], the “percentage of L. amazonensis undergoing cell division” value [5] was “did not affect L. amazonensis cell division” and the “tubulin intensity over control (DMSO-treated)” value [6] was “did not increase tubulin intensity”.
For CC(=O)Oc1ccccc1C(=O)Nc1ncc([N+](=O)[O-])s1 [nitazoxanide], the “relative fluorescence intensity signal” value [2, 9] was “hits”.
